{
  "source": "patent US20220313658A1",
  "about": "“YAP Inhibition for Wound Healing” (The Board of Trustees of the Leland Stanford Junior …, priority 2019, published 2022)",
  "key": {"ENFs": {"tested_on": "ENFs", "assay": "Bulk RNA-seq of ENFs cultured on TCPS in the presence of Verteporfin", "type": "cell-based, mouse", "method": "Total RNA was harvested by lysing cells in Trizol reagent (Invitrogen), RNA extraction and library preparation was performed by the Stanford Functional Genomics facility using standard Qiagen kits and protocols. Directional RNA-Sal libraries were analyzed with an Agilent Bioanalyzer to ensure successful library creation, and then sequenced with the Illumina HiSeq 4000 System (2×75 bp, 150 cycles), Paired-end reads were mapped to the mouse genome reference sequence mm10 using the STAR aligner. […] It is common practice to normalize read counts by the total number of reads and the length of each transcript, yielding reads per kilobase mapped (RPKM) values. However, such analysis may be skewed towards a few highly expressed genes that dominate the total lane count. Thus, instead, counts were normalized by a size factor, calculated by taking the median of the ratios of observed counts to those of a pseudo-reference sample (whose counts are the geometric means of each gene across all samples). For hypothesis testing of differential gene transcription, the read counts were modeled according to a negative binomial distribution, with the variance considered as the sum of the shot noise term and a locally regressed non-parametric smooth function of the mean. […] Raw RNA-seq data can be accessed at the following Github repository: https://github.com/[…]. […] Ranked whole genome enrichment analyses in FIGS. 6 and 7 were performed using GSEA software developed by the Broad Institute with nominal p value and false discovery rate (FDR) cutoffs of 0.01 and 0.25, respectively. All g.Profiler and GSEA results are available in the following Github repository: https://github.com/[…]. In order to ascertain whether in vitro En-1 activation involved a shift toward a fibrotic transcriptomic profile, bulk ENFs were isolated from En-1^Cre;R26^mTmG mice and grew these cells on TCPS for 2 days (at which point ENFs remain single cells), 7 days (when ENFs form colonies), or 14 days (when ENFs activate En-1) (experimental schematic in FIG. 3, A). Cultured cells were then subjected to bulk RNA-seq analysis. Next, to assess if postnatal En-1 activation was dependent on mechanotransduction signaling, ENFs cultured on TCPS were grown in the presence of Verteporfin. After 14 days in culture, treated cells were subjected to RNA-seq. […] GO term analysis in g."}, "dorsal excisional wounds": {"tested_on": "dorsal excisional wounds", "assay": "Example 2: excisional wound model, hair regrowth after single Verteporfin injection", "type": "in vivo, mouse", "text": "Adult mice were used for cutaneous wound healing experiments in accordance with well-established protocols. Briefly, mice were anesthetized (2% isofluorane), their dorsal hair was removed with depilatory cream, and the dorsal skin was prepped with alcohol wipes. Next, two 6 mm full-thickness circular wounds were placed through the panniculus carnosus on the dorsum of each animal at the same level, roughly 6 mm below the ears and 4 mm lateral to the midline. The wounds were then stented open by 12 mm diameter silicone rings secured around the wound perimeter with glue and 8 simple interrupted Ethilon 6-0 sutures (Ethicon). For mice receiving mechanotransduction inhibitor, 30 μL of Verteporfin (1 mg/mL) was injected locally into the wound base; PBS was injected into wounds for vehicle controls. Post-operative analgesia was accomplished with buprenorphine 0.05 mg/kg every four hours for three doses, and then as indicated. Dressings were changed every other day under anesthesia. […]"}, "[1]": {"conditions": "ENFs on TCPS, 14 days with Verteporfin"}, "[2]": {"conditions": "single local injection immediately following wounding"}},
  "data": [
    {"substance": "verteporfin", "values": [
      {"measurement": "Expression of ECM / pro-fibrotic matrix genes", "setting": "ENFs; [1]", "result": "reduced expression of various ECM genes"},
      {"measurement": "GO term enrichment (g.Profiler)", "setting": "ENFs; [1]", "result": "decreased enrichment of ECM-related terms and relatively higher muscle development-related terms"},
      {"measurement": "Transcriptomic shift over time in culture (RNA-seq)", "setting": "ENFs; ENFs on TCPS, 14 days with Verteporfin, vs untreated cells", "result": "attenuated the transcriptomic shift observed in untreated cells"},
      {"measurement": "Expression of ECM / pro-fibrotic matrix genes", "setting": "ENFs; ENFs on TCPS, 14 days with Verteporfin, listed as Vert", "result": "mitigated"},
      {"measurement": "Principal component analysis of RNA-seq data", "setting": "ENFs; ENFs treated with Verteporfin for 14 days", "result": "more closely resembled untreated cells that had only been in culture for 2 days"},
      {"measurement": "Regrowth of dermal appendages", "setting": "dorsal excisional wounds; POD 90 (FIG. 13, C)", "result": "regrowth of hair follicles and other dermal appendages"},
      {"measurement": "Hair regrowth", "setting": "dorsal excisional wounds; [2]", "result": "dramatic increase in hair regrowth"},
      {"measurement": "Regeneration of new hair follicles (gross, histology, immunohistochemistry)", "setting": "dorsal excisional wounds; [2]", "result": "Regeneration of new hair follicles in Verteporfin-treated wounds was observed"},
      {"measurement": "Wound closure", "setting": "dorsal excisional wounds; [2]", "result": "did not delay wound closure"}
    ]}
  ]
}
